Experimental data published in patent US9802937B2, “Substituted pyrazolo{4,3-D}pyrimidines as kinase inhibitors” (ORIGENIS GMBH, priority 2011, dated 2017).

These molecules were tested against T1, SYK kinase (Homo sapiens, UniProt P43405) (assay: SYK Assay (OMNIA KINASE ASSAY, SOX peptide fluorescence)). Conditions: apparent Ki calculated from the IC50 using the Cheng-Prusoff equation; 1 mM ATP, 30° C.; read-out: SYK Activities: Ki.
T1 construct: purchased Invitrogen, Carlsbad
Type: biochemical
Description: In the assay OMNIA® KINASE ASSAY by Invitrogen Corporation (Carlsbad) the effect of invention of a compound on the phosphorylation is determined by measurement of fluorescence intensity of a chelation-enhanced fluorophore called SOX. Upon phosphorylation of the peptide by the kinase of interest, Mg2+ is chelated to form a bridge between the SOX moiety and the phosphate group that is transferred to the specific tyrosine on the peptide. The fluorescence intensity is directly proportional to the amount of peptide phosphorylation.
To the wells of an 384 well small volume plate (Greiner, Frickenhausen) are added (i) the compound under test in 5% DMSO/distilled water (2 μl), (ii) 16 μl of the master mix containing ATP, DTT, Kinase Reaction Buffer, Omina Peptide Substrate Tyr 7 resulting in a final concentration of 1 mM ATP, 0.2 mM DTT and 10 μM Peptide Substrate.
The Master Mix and the assay plate was incubated to reaction temperature before the measurement (30° C.). The reaction was started with addition of (iii) 2 μl 4 μg/ml SYK kinase (Invitrogen, Carlsbad). During measurement fluorescence intensitiy readings were collected using a TECAN M1000 at a wavelength of λex 360/λem 485 nm every 30 s for 30 minutes. The reaction velocity was plotted versus the inhibitor concentration to determine the […] using XLFit 5.0 (IDBS, Guildford) to fit to a sigmoidal dose response curve, and the apparent Ki values were calculated from the IC50 using the Cheng-Prusoff equation (Cheng, Y.; Prusoff, W. H. Biochem. Pharmacol. 22, 3099-3108, 1973).

Question: How did the Ki turn out when `c1ccc(-c2nc(Nc3ccc(N4CCCCC4)cc3)c3[nH]ncc3n2)cc1` [Example #3, 5-phenyl-N-(4-(piperidin-1-yl)phenyl)-1H-pyrazolo[4,3-d]pyrimidin-7-amine] was run?
Answer: 10 to 100 nM

Question: For `COc1ccc(Nc2nc(-c3ccc(F)cc3F)nc3cn[nH]c23)cc1OC` [Example #285, 5-(2,4-difluorophenyl)-N-(3,4-dimethoxyphenyl)-1H-pyrazolo[4,3-d]pyrimidin-7-amine], which Ki is on record?
Answer: < 10 nM

Question: Which Ki does the source give for `COC(=O)c1cccc(-c2nc(Nc3ccc4c(c3)NC(=O)CCC4)c3[nH]ncc3n2)c1` [Example #217, methyl 3-(7-((2-oxo-2,3,4,5-tetrahydro-1H-benzo[b]azepin-8-yl)amino)-1H-pyrazolo[4,3-d]pyrimidin-5-yl)benzoate] here?
Answer: 100 to 1000 nM

Question: With `N#Cc1ccc(Nc2nc(-c3ccccc3)nc3cn[nH]c23)cc1` [Example #12, 4-((5-phenyl-1H-pyrazolo[4,3-d]pyrimidin-7-yl)amino)benzonitrile] as the molecule, how does the Ki read?
Answer: 10 to 100 nM

Question: `c1ccc2sc(-c3nc(Nc4ccc5cn[nH]c5c4)c4[nH]ncc4n3)nc2c1` [Example #98, 5-(benzo[d]thiazol-2-yl)-N-(1H-indazol-6-yl)-1H-pyrazolo[4,3-d]pyrimidin-7-amine] was tested. Which Ki did it give?
Answer: < 10 nM

Question: `COc1ccc(Nc2nc(-c3nc4ccccc4[nH]3)nc3cn[nH]c23)cc1OC` [Example #129, 5-(1H-benzo[d]imidazol-2-yl)-N-(3,4-dimethoxyphenyl)-1H-pyrazolo[4,3-d]pyrimidin-7-amine] was tested. Which Ki did it give?
Answer: 10 to 100 nM

Question: Which Ki does the source give for `COc1ccc(-c2nc(Nc3ccc(N4CCSCC4)cc3)c3[nH]ncc3n2)cc1` [Example #168, 5-(4-methoxyphenyl)-N-(4-thiomorpholinophenyl)-1H-pyrazolo[4,3-d]pyrimidin-7-amine] here?
Answer: 10 to 100 nM

Question: `CN(C)S(=O)(=O)c1ccc(Nc2nc(-c3cccs3)nc3cn[nH]c23)cc1` [Example #260, N,N-dimethyl-4-((5-(thiophen-2-yl)-1H-pyrazolo[4,3-d]pyrimidin-7-yl)amino)benzenesulfonamide] was tested. Which Ki did it give?
Answer: 10 to 100 nM

Question: How did the Ki turn out when `c1cc(-c2nc(Nc3ccc(N4CCOCC4)cc3)c3[nH]ncc3n2)ccn1` [Example #19, N-(4-morpholinophenyl)-5-(pyridin-4-yl)-1H-pyrazolo[4,3-d]pyrimidin-7-amine] was run?
Answer: 10 to 100 nM

Question: `NC(=O)c1ccc(Nc2nc(-c3ccccc3)nc3cn[nH]c23)cc1` [Example #11, 4-((5-phenyl-1H-pyrazolo[4,3-d]pyrimidin-7-yl)amino)benzamide] was tested. Which Ki did it give?
Answer: < 10 nM

Question: Which Ki does the source give for `COc1ccc(Nc2nc(-c3cn4ccccc4n3)nc3cn[nH]c23)cc1OC` [Example #124, N-(3,4-dimethoxyphenyl)-5-(imidazo[1,2-a]pyridin-2-yl)-1H-pyrazolo[4,3-d]pyrimidin-7-amine] here?
Answer: 10 to 100 nM

Question: With `c1cc2ncc(-c3nc(Nc4ccc(N5CCOCC5)cc4)c4[nH]ncc4n3)cc2[nH]1` [Example #258, N-(4-morpholinophenyl)-5-(1H-pyrrolo[3,2-b]pyridin-6-yl)-1H-pyrazolo[4,3-d]pyrimidin-7-amine] as the molecule, how does the Ki read?
Answer: 10 to 100 nM

Question: `O=C1CCc2ccc(Nc3nc(-c4cccc(S(F)(F)(F)(F)F)c4)nc4cn[nH]c34)cc2N1` [Example #222, 7-((5-(3-(pentafluorosulfanyl)phenyl)-1H-pyrazolo[4,3-d]pyrimidin-7-yl)amino)-3,4-dihydroquinolin-2(1H)-one] was tested. Which Ki did it give?
Answer: 100 to 1000 nM

Question: Which Ki does the source give for `COc1ccc(Nc2nc(-c3ccc4c(c3)NC(=O)CO4)nc3cn[nH]c23)cc1OC` [Example #299, 6-(7-((3,4-dimethoxyphenyl)amino)-1H-pyrazolo[4,3-d]pyrimidin-5-yl)-2H-benzo[b][1,4]oxazin-3(4H)-one] here?
Answer: 10 to 100 nM

Question: For `COC(=O)c1cccc(-c2nc(Nc3ccc4c(c3)NC(=O)CC4)c3[nH]ncc3n2)c1` [Example #210, methyl 3-(7-((2-oxo-1,2,3,4-tetrahydroquinolin-7-yl)amino)-1H-pyrazolo[4,3-d]pyrimidin-5-yl)benzoate], which Ki is on record?
Answer: 10 to 100 nM

Question: With `c1cc(Nc2nc(-c3cccs3)nc3cn[nH]c23)cc(-n2nccn2)c1` [Example #262, N-(3-(2H-1,2,3-triazol-2-yl)phenyl)-5-(thiophen-2-yl)-1H-pyrazolo[4,3-d]pyrimidin-7-amine] as the molecule, how does the Ki read?
Answer: 100 to 1000 nM

Question: How did the Ki turn out when `FC(F)(F)Oc1cccc(-c2nc(Nc3ccc(N4CCOCC4)cc3)c3[nH]ncc3n2)c1` [Example #227, N-(4-morpholinophenyl)-5-(3-(trifluoromethoxy)phenyl)-1H-pyrazolo[4,3-d]pyrimidin-7-amine] was run?
Answer: 10 to 100 nM

Question: `COC(=O)c1ccc(-c2nc(Nc3ccc4c(c3)NC(=O)CC4)c3[nH]ncc3n2)cc1` [Example #215, methyl 4-(7-((2-oxo-1,2,3,4-tetrahydroquinolin-7-yl)amino)-1H-pyrazolo[4,3-d]pyrimidin-5-yl)benzoate] was tested. Which Ki did it give?
Answer: 100 to 1000 nM

Question: How did the Ki turn out when `COc1ccc(OC)c(-c2nc(Nc3ccc(N4CCN(C5CC5)CC4)cc3)c3[nH]ncc3n2)c1` [Example #123, N-(4-(4-cyclopropylpiperazin-1-yl)phenyl)-5-(2,5-dimethoxyphenyl)-1H-pyrazolo[4,3-d]pyrimidin-7-amine] was run?
Answer: 10 to 100 nM

Question: Which Ki does the source give for `CN1CCN(c2ccc(Nc3nc(C(=O)c4ccccc4)nc4cn[nH]c34)cc2)CC1` [Example #152, (7-((4-(4-methylpiperazin-1-yl)phenyl)amino)-1H-pyrazolo[4,3-d]pyrimidin-5-yl)(phenyl)methanone] here?
Answer: 10 to 100 nM

Question: How did the Ki turn out when `COc1ccc(Nc2nc(-c3ccc(C(=O)O)cc3)nc3cn[nH]c23)cc1OC` [Example #244, 4-(7-((3,4-dimethoxyphenyl)amino)-1H-pyrazolo[4,3-d]pyrimidin-5-yl)benzoic acid] was run?
Answer: < 10 nM

Question: Which Ki does the source give for `O=C(O)c1ccc(-c2nc(Nc3ccc(N4CCOCC4)cc3)c3[nH]ncc3n2)cc1` [Example #243, 4-(7-((4-morpholinophenyl)amino)-1H-pyrazolo[4,3-d]pyrimidin-5-yl)benzoic acid] here?
Answer: < 10 nM

Question: How did the Ki turn out when `COc1ccc(Nc2nc(-c3cccc(S(F)(F)(F)(F)F)c3)nc3cn[nH]c23)cc1OC` [Example #219, N-(3,4-dimethoxyphenyl)-5-(3-(pentafluorosulfanyl)phenyl)-1H-pyrazolo[4,3-d]pyrimidin-7-amine] was run?
Answer: 100 to 1000 nM

Question: `c1csc(-c2nc(Nc3ccc(-n4nccn4)cc3)c3[nH]ncc3n2)c1` [Example #263, N-(4-(2H-1,2,3-triazol-2-yl)phenyl)-5-(thiophen-2-yl)-1H-pyrazolo[4,3-d]pyrimidin-7-amine] was tested. Which Ki did it give?
Answer: 100 to 1000 nM

Question: With `Cc1nc2cc(Nc3nc(-c4cnc5cc[nH]c5c4)nc4cn[nH]c34)ccc2[nH]1` [Example #259, N-(2-methyl-1H-benzo[d]imidazol-5-yl)-5-(1H-pyrrolo[3,2-b]pyridin-6-yl)-1H-pyrazolo[4,3-d]pyrimidin-7-amine] as the molecule, how does the Ki read?
Answer: 100 to 1000 nM

Question: With `COc1ccc(Nc2nc(C(=O)c3ccccc3)nc3cn[nH]c23)cc1OC` [Example #153, (7-((3,4-dimethoxyphenyl)amino)-1H-pyrazolo[4,3-d]pyrimidin-5-yl)(phenyl)methanone] as the molecule, how does the Ki read?
Answer: 100 to 1000 nM

Question: For `c1cncc(-c2cccc(-c3nc(Nc4cc(C5CC5)[nH]n4)c4[nH]ncc4n3)c2)c1` [Example #100, N-(5-cyclopropyl-1H-pyrazol-3-yl)-5-(3-(pyridin-3-yl)phenyl)-1H-pyrazolo[4,3-d]pyrimidin-7-amine], which Ki is on record?
Answer: 10 to 100 nM

Question: `CN1CCC(c2nc(Nc3ccc4c(c3)NC(=O)CO4)c3[nH]ncc3n2)CC1` [Example #54, 6-((5-(1-methylpiperidin-4-yl)-1H-pyrazolo[4,3-d]pyrimidin-7-yl)amino)-2H-benzo[b][1,4]oxazin-3(4H)-one] was tested. Which Ki did it give?
Answer: < 10 nM

Question: For `O=S(=O)(c1cccc(Nc2nc(-c3cccs3)nc3cn[nH]c23)c1)C(F)(F)F` [Example #267, 5-(thiophen-2-yl)-N-(3-((trifluoromethyl)sulfonyl)phenyl)-1H-pyrazolo[4,3-d]pyrimidin-7-amine], which Ki is on record?
Answer: 100 to 1000 nM

Question: `CN(C)Cc1cccc(Nc2nc(-c3cccs3)nc3cn[nH]c23)c1` [Example #292, N-(3-((dimethylamino)methyl)phenyl)-5-(thiophen-2-yl)-1H-pyrazolo[4,3-d]pyrimidin-7-amine] was tested. Which Ki did it give?
Answer: 100 to 1000 nM

Question: How did the Ki turn out when `c1ccc(-c2nc(Nc3ccc(N4CCCC4)cc3)c3[nH]ncc3n2)cc1` [Example #39, 5-phenyl-N-(4-(pyrrolidin-1-yl)phenyl)-1H-pyrazolo[4,3-d]pyrimidin-7-amine] was run?
Answer: 100 to 1000 nM

Question: Which Ki does the source give for `CN1CCC(c2nc(Nc3cc(C4CC4)[nH]n3)c3[nH]ncc3n2)CC1` [Example #92, N-(5-cyclopropyl-1H-pyrazol-3-yl)-5-(1-methylpiperidin-4-yl)-1H-pyrazolo[4,3-d]pyrimidin-7-amine] here?
Answer: 10 to 100 nM

Question: `COc1ccc(Nc2nc(-c3cccc(Cl)c3)nc3cn[nH]c23)cc1OC` [Example #230, 5-(3-chlorophenyl)-N-(3,4-dimethoxyphenyl)-1H-pyrazolo[4,3-d]pyrimidin-7-amine] was tested. Which Ki did it give?
Answer: 10 to 100 nM

Question: Which Ki does the source give for `COc1ccccc1-c1nc(Nc2cc(C3CC3)[nH]n2)c2[nH]ncc2n1` [Example #113, N-(5-cyclopropyl-1H-pyrazol-3-yl)-5-(2-methoxyphenyl)-1H-pyrazolo[4,3-d]pyrimidin-7-amine] here?
Answer: 100 to 1000 nM

Question: Which Ki does the source give for `c1cc2cn[nH]c2cc1Nc1nc(-c2ccc(N3CCCC3)nc2)nc2cn[nH]c12` [Example #30, N-(1H-indazol-6-yl)-5-(6-(pyrrolidin-1-yl)pyridin-3-yl)-1H-pyrazolo[4,3-d]pyrimidin-7-amine] here?
Answer: < 10 nM
